Assay results taken from PMC9398908, “GLP-1-mediated delivery of tesaglitazar improves obesity and glucose metabolism in male mice” (Nature Metabolism, 2022).
Values joined by “and” are separate entries in the source; they are usually repeats but may differ in a detail not shown here. Identical values can stand only once.

Columns and labels:
hGLP-1R [1] = target: T1, hGLP-1R (Homo sapiens, UniProt P43220); experiment: Ligand-induced hGLP-1R-Rluc8 internalization (BRET) in mouse MIN6 β-cells; format: cell-based; settings: Fig. 1f, in words
T1 construct: host or cells: HEK293T, transient transfection
Method: (§1) HEK293T cells (700,000 per well) were seeded in six-well plates and incubated to 70% confluency in DMEM (10% FBS, 1% Pen/Strep). Twenty-four hours following seeding, transient transfections were performed using Lipofectamine 2000 (catalogue no. 11668019, Invitrogen) according to the manufacturer’s protocol without including additional transformation carrier DNA.
(§2) Twenty-four hours following transfection, HEK293T cells or MIN6 cells were washed with PBS and resuspended in FluoroBrite phenol red-free complete media (catalogue no. A1896701, Life Technologies) containing 5% FBS and 2 mM of L-glutamine (catalogue no. 25030081, Life Technologies). 100,000 cells per well were plated into poly-D-lysine-coated (catalogue no. P6403, Sigma-Aldrich) 96-well white polystyrene LumiNunc plates (catalogue no. 10072151, Thermo Fisher Scientific). After 24 h, the media was replaced with PBS (catalogue no. 10010056, Gibco) containing 10 μM of coelenterazine-h (catalogue no. S2011, Promega) or 1:500 dilution of NanoGlo (catalogue no. N1110, Promega). BRET measurements were taken every 30 s–2 min using a PHERAstar FS multi-mode microplate reader. […] The resulting ligand-specific ratiometric BRET signals were normalized to vehicle producing the ‘ligand-induced BRET ratio’[37], followed by an additional normalization step to well-specific baseline readings.

hGLP-1R [2] = target: T1, hGLP-1R; experiment: hGLP-1R-Rluc8 co-localization with lysosome marker Lamp1-mNeonGreen (BRET) in HEK293T cells; format: cell-based; settings: HEK293 cells; Fig. 1g; in words
Method: as §1, §2

C57BL/6J DIO mice [3] = experiment: Chronic high-dose treatment of DIO mice (14 days, 50 nmol/kg/day): body weight, food intake, fat and lean mass (Fig. 2a–d); format: in vivo, mouse; settings: individual mice
Description: Glp1r^−/− mice were kindly provided by D. Drucker (University of Toronto, Canada). All wildtype and knockout mice used in our studies were in-house bred on a C57BL/6J background. […] At the beginning of each experiment, mice were equally distributed into experimental groups according to their body weight and body composition. All animal studies were approved by the State of Bavaria, Germany, or the Insitutional Animal Care and Use Committee of the University of Cincinnati, OH, USA and conducted on the basis of the underlying animal welfare law of the respective countries. Compounds were dissolved in PBS and were s.c. administered with a volume of 5 μl g^−1 body weight in the indicated doses between 15:00 and 16:00.
Fat and lean tissue mass were measured via nuclear magnetic resonance technology (EchoMRI).

C57BL/6J DIO mice [4] = experiment: Fasting blood glucose, insulin and HOMA-IR in DIO mice (Fig. 2e,f; Extended Data Fig. 3c); format: in vivo, mouse; settings: for HOMA IR: Suppl. Fig. 3c
Method: (§3) Glp1r^−/− mice were kindly provided by D. Drucker (University of Toronto, Canada). All wildtype and knockout mice used in our studies were in-house bred on a C57BL/6J background. Mice were double-housed and kept in a constant environment with the ambient temperature set to 22 ± 2 °C with constant humidity (45–65%) and a 12 h/12 h light/dark cycle with lights off from 06:00 until 18:00. For studies in DIO mice, male C57BL/6J mice were fed with a high-fat diet comprising 58% kilocalories from fat (D12331, Research Diets). db/db mice were fed with a normal chow diet (T1314, Altromin GmbH) throughout the study. At the beginning of each experiment, mice were equally distributed into experimental groups according to their body weight and body composition. All animal studies were approved by the State of Bavaria, Germany, or the Insitutional Animal Care and Use Committee of the University of Cincinnati, OH, USA and conducted on the basis of the underlying animal welfare law of the respective countries. Compounds were dissolved in PBS and were s.c. administered with a volume of 5 μl g^−1 body weight in the indicated doses between 15:00 and 16:00.

C57BL/6J DIO mice [5] = experiment: i.p. insulin tolerance test in DIO mice (Fig. 2g,h; Extended Data Fig. 3a,b); format: in vivo, mouse; design: unit not given here; settings: for AOC: ITT, Suppl. Fig. 3b
Method: (§4) Glucose tolerance was assessed in 6 h fasted mice after i.p injection of 1.75 g glucose per kg body weight (DIO mice). Insulin tolerance was assessed in 6 h fasted mice after i.p. injection of either 0.75 U Insulin per […] body weight (DIO mice) or 1 U Insulin per […] body weight (db/db mice) (Humalog, Eli Lilly). Tail vein blood glucose was subsequently measured using a handheld glucometer (TheraSense Freestyle) at baseline and after 15, 30, 60 and 120 min.

C57BL/6J DIO mice [6] = experiment: Urinary albumin:creatinine ratio in DIO mice (Extended Data Fig. 2g); format: in vivo, mouse; settings: 14-day treatment, 50 nmol kg−1 per day, in words
Description: Frozen urine samples from heterozygous GIPR^dn mice in a CD1 background (n = 3) served as positive controls. […] For each treatment group, uACR was computed as a ratio of urinary albumin (mg ml^−1) to urinary creatinine (mg ml^−1).

db/db mice = experiment: 4-day treatment of obese db/db mice (50 nmol/kg/day): body weight, food intake, glucose, tolerance test (Fig. 6); format: in vivo, mouse; design: blood glucose (legend: change in blood glucose) / AOC: unit not given here; settings: 4 days, 50 nmol kg−1 per day, individual mice
Method: as §3, §4

T1 sequence (P43220 24-463): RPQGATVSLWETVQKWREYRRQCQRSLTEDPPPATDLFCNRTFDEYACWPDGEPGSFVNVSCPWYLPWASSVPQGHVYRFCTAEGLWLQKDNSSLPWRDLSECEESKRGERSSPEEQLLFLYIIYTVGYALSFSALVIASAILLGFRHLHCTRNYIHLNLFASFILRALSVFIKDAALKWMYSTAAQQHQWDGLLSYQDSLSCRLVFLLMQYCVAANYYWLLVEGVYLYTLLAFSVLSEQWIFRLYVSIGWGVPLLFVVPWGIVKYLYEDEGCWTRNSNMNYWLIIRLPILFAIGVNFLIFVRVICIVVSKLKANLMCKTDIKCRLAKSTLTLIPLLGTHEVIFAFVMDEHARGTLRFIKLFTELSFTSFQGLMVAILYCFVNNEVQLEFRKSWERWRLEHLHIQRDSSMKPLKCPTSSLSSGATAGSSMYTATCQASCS

With `CCO[C@@H](Cc1ccc(OCCc2ccc(OS(C)(=O)=O)cc2)cc1)C(=O)O` [tesaglitazar, (S)-2-ethoxy-3-(4-(4-((methylsulfonyl)oxy)phenethoxy)phenyl) propanoic acid] the GLP-1R internalization (hGLP-1R [1]) was “had no effect”, the “lysosomal GLP-1R appearance (GLP-1R-Lamp1 colocalization)” value (hGLP-1R [2]) was “had no effect” and the “delta Fat mass (%)” value (C57BL/6J DIO mice [3]; Figure 2c, sheet notes an outlier based on grubbs test) was -21.91% and -19.00% and -17.53% and -14.42% and -13.51% and -9.80% and -21.20% and -17.11%. For the same molecule, the “delta lean mass (%)” value (C57BL/6J DIO mice [3]; Figure 2d) was -3.73% and -4.62% and -4.21% and -6.43% and -3.83% and -4.53% and -3.02% and -3.39%, the “blood glucose” value (C57BL/6J DIO mice [4]; DIO mice, Figure 2e, individual mice) was 110 mg/dL and 133 mg/dL and 143 mg/dL and 112 mg/dL and 107 mg/dL and 150 mg/dL and 108 mg/dL and the insulin (C57BL/6J DIO mice [4]; DIO mice, Figure 2f, individual mice) was 1.06 ng/mL and 1.72 ng/mL and 0.73 ng/mL and 1.32 ng/mL and 2.56 ng/mL and 2.63 ng/mL and 1.88 ng/mL and 1.65 ng/mL. The “HOMA IR” value (C57BL/6J DIO mice [4]; animal 1 of the group) was 9.08, the “HOMA IR” value (C57BL/6J DIO mice [4]; animal 2 of the group) was 17.60 and the “HOMA IR” value (C57BL/6J DIO mice [4]; animal 3 of the group) was 17.24. The “HOMA IR” value (C57BL/6J DIO mice [4]; animal 4 of the group) was 17.30, the “HOMA IR” value (C57BL/6J DIO mice [4]; animal 5 of the group) was 10.92 and the “HOMA IR” value (C57BL/6J DIO mice [4]; animal 6 of the group) was 7.15. For the same molecule, the “HOMA IR” value (C57BL/6J DIO mice [4]; animal 7 of the group) was 14.05, the “HOMA IR” value (C57BL/6J DIO mice [4]; animal 8 of the group) was 6.44 and the AUC (C57BL/6J DIO mice [5]; DIO mice, Figure 2h, AUC of the insulin tolerance test, individual mice, one conjugate mouse missinjected) was 78.83 and 85.05 and 79.73 and 58.88 and 108.1 and 99.38 and 88.2 and 80.48. For the same molecule, the AOC (C57BL/6J DIO mice [5]; animal 1 of the group) was 151.5, the AOC (C57BL/6J DIO mice [5]; animal 2 of the group) was 33 and the AOC (C57BL/6J DIO mice [5]; animal 3 of the group) was 29.64. For the same molecule, the AOC (C57BL/6J DIO mice [5]; animal 4 of the group) was 82.26, the AOC (C57BL/6J DIO mice [5]; animal 5 of the group) was 109.5 and the AOC (C57BL/6J DIO mice [5]; animal 6 of the group) was 165. For the same molecule, the AOC (C57BL/6J DIO mice [5]; animal 7 of the group) was 167, the AOC (C57BL/6J DIO mice [5]; animal 8 of the group) was 172 and the “urinary albumin:creatinine ratio” value (C57BL/6J DIO mice [6]) was “likewise not changed”. The “blood glucose (plasma glucose)” value (db/db mice; Fig. 6c) was 482 and 462 and 314 and 500 and 452 and 446, the AOC (db/db mice; Fig. 6f, baseline-corrected) was 9 and 124.5 and 63.27 and 252.8 and 257.2 and 64 and the “blood glucose (legend: change in blood glucose)” value (db/db mice; Fig. 6d) was 33 and 120 and -49 and 69 and 52 and 7.
